Columns and labels:
Assay type in all cases: in vivo
Conditions in all cases: rating 0-100 (0 no damage, 100 complete death), 14 days after application
[1] = test system: redroot pigweed (Amaranthus retroflexus, AMARE); assay: Post-emerge herbicidal activity, greenhouse screen, AMARE
Text: (§1) A standard greenhouse herbicide activity screening system was used to evaluate the herbicidal efficacy and crop safety of these test compounds. Seven broadleaf weed species including redroot pigweed (Amaranthus retroflexus, AMARE), velvetleaf (Abutilon theophrasti, ABUTH), sicklepod (Cassia obtusifolia, CASOB), ivyleaf morningglory (Ipomoea hederacea, IPOHE), lambsquarters (Chenopodium album, CHEAL), common ragweed (Ambrosia artemisiifolia L., AMBEL), and cocklebur (Xanthium strumarium, XANST) were used as test species. Four grass weed species including green foxtail (Setaria viridis, SETVI), barnyardgrass (Echinochloa crus-galli, ECHCG), johnsongrass (Sorghum halepense, SORHA), and large crabgrass (Digitaria sanguinalis, DIGSA) were also used. In addition, three crop species, field corn (Zea mays L., var. Dekalb 527, CORN), soybean (Glycine max L., var. Pella 86, SOY), and upland rice (Oryza sp., var. Tebonnet, RICE) were included.
(§2) All plants were grown in 10 cm square plastic pots which were filled with a sandy loam soil mix. For pre-emerge tests, seeds were planted one day prior to application of the test compounds. For post-emerge tests, seeds were planted 8-21 days prior to the test to allow emergence and good foliage development prior to application of the test substances. At the time of the post-emerge application, plants of all species were usually at the 2-3 leaf stage of development.
(§3) All test compounds were dissolved in acetone and applied to the test units in a volume of 187 l/ha. Test materials were applied at rates ranging from 15 g ai/ha to 1000 g ai/ha using a track sprayer equipped with a TJ8001 E even flow flat fan spray nozzle. Plants were arranged on a shelf so that the top of the canopy (post-emerge) or top of the soil surface (pre-emerge) was 40-45 cm below the nozzle. Pressurized air was used to force the test solution through the nozzle as it was mechanically advanced over the top of all test plants/pots. This application simulates a typical commercial field herbicide application.
(§4) In the post-emerge test, a commercial non-ionic surfactant was also included (0.25% v/v) to enhance wetting of the leaf surfaces of target plants. Immediately after application, test units of the pre-emerge applications were watered at the soil surface to incorporate the test materials.
(§5) At 14 days after application of the test materials, phytotoxicity ratings were recorded. A rating scale of 0-100 was used as previously described in Research Methods in Weed Science, 2nd edition, B. Truelove, Ed., Southern Weed Science Society, Auburn University, Auburn, Ala., 1977. Briefly, “0” corresponds to no damage and “100” corresponds to complete death of all plants in the test unit. This scale was used both to determine efficacy against weed species and damage to crop species. Herbicide activity data for various compounds of this invention, which are shown by compound No. in Tables 1-7, are shown in Tables 8 and 9.

[2] = test system: upland rice (Oryza sp., var. Tebonnet, RICE); assay: Pre-emerge crop damage, greenhouse screen, RICE
Text: as §1, §2, §3, §4, §5

[3] = test system: field corn (Zea mays L., var. Dekalb 527, CORN); assay: Pre-emerge crop damage, greenhouse screen, CORN
Text: as §1, §2, §3, §4, §5

[4] = test system: barnyardgrass (Echinochloa crus-galli, ECHCG); assay: Post-emerge herbicidal activity, greenhouse screen, ECHCG
Text: as §1, §2, §3, §4, §5

[5] = test system: soybean (Glycine max L., var. Pella 86, SOY); assay: Post-emerge crop damage, greenhouse screen, SOY
Text: as §1, §2, §3, §4, §5

[6] = test system: sicklepod (Cassia obtusifolia, CASOB); assay: Post-emerge herbicidal activity, greenhouse screen, CASOB
Text: as §1, §2, §3, §4, §5

[7] = test system: common ragweed (Ambrosia artemisiifolia L., AMBEL); assay: Post-emerge herbicidal activity, greenhouse screen, AMBEL
Text: as §1, §2, §3, §4, §5

[8] = test system: redroot pigweed (Amaranthus retroflexus, AMARE); assay: Pre-emerge herbicidal activity, greenhouse screen, AMARE
Text: as §1, §2, §3, §4, §5

[9] = test system: johnsongrass (Sorghum halepense, SORHA); assay: Post-emerge herbicidal activity, greenhouse screen, SORHA
Text: as §1, §2, §3, §4, §5

[10] = test system: large crabgrass (Digitaria sanguinalis, DIGSA); assay: Post-emerge herbicidal activity, greenhouse screen, DIGSA
Text: as §1, §2, §3, §4, §5

[11] = test system: johnsongrass (Sorghum halepense, SORHA); assay: Pre-emerge herbicidal activity, greenhouse screen, SORHA
Text: as §1, §2, §3, §4, §5

[12] = test system: upland rice (Oryza sp., var. Tebonnet, RICE); assay: Post-emerge crop damage, greenhouse screen, RICE
Text: as §1, §2, §3, §4, §5

[13] = test system: green foxtail (Setaria viridis, SETVI); assay: Pre-emerge herbicidal activity, greenhouse screen, SETVI
Text: as §1, §2, §3, §4, §5

[14] = test system: common ragweed (Ambrosia artemisiifolia L., AMBEL); assay: Pre-emerge herbicidal activity, greenhouse screen, AMBEL
Text: as §1, §2, §3, §4, §5

[15] = test system: green foxtail (Setaria viridis, SETVI); assay: Post-emerge herbicidal activity, greenhouse screen, SETVI
Text: as §1, §2, §3, §4, §5

[16] = test system: large crabgrass (Digitaria sanguinalis, DIGSA); assay: Pre-emerge herbicidal activity, greenhouse screen, DIGSA
Text: as §1, §2, §3, §4, §5

[17] = test system: velvetleaf (Abutilon theophrasti, ABUTH); assay: Post-emerge herbicidal activity, greenhouse screen, ABUTH
Text: as §1, §2, §3, §4, §5

[18] = test system: velvetleaf (Abutilon theophrasti, ABUTH); assay: Pre-emerge herbicidal activity, greenhouse screen, ABUTH
Text: as §1, §2, §3, §4, §5

[19] = test system: soybean (Glycine max L., var. Pella 86, SOY); assay: Pre-emerge crop damage, greenhouse screen, SOY
Text: as §1, §2, §3, §4, §5

[20] = test system: ivyleaf morningglory (Ipomoea hederacea, IPOHE); assay: Post-emerge herbicidal activity, greenhouse screen, IPOHE
Text: as §1, §2, §3, §4, §5

[21] = test system: lambsquarters (Chenopodium album, CHEAL); assay: Post-emerge herbicidal activity, greenhouse screen, CHEAL
Text: as §1, §2, §3, §4, §5

[22] = test system: lambsquarters (Chenopodium album, CHEAL); assay: Pre-emerge herbicidal activity, greenhouse screen, CHEAL
Text: as §1, §2, §3, §4, §5

[23] = test system: sicklepod (Cassia obtusifolia, CASOB); assay: Pre-emerge herbicidal activity, greenhouse screen, CASOB
Text: as §1, §2, §3, §4, §5

[24] = test system: field corn (Zea mays L., var. Dekalb 527, CORN); assay: Post-emerge crop damage, greenhouse screen, CORN
Text: as §1, §2, §3, §4, §5

[25] = test system: barnyardgrass (Echinochloa crus-galli, ECHCG); assay: Pre-emerge herbicidal activity, greenhouse screen, ECHCG
Text: as §1, §2, §3, §4, §5

[26] = test system: ivyleaf morningglory (Ipomoea hederacea, IPOHE); assay: Pre-emerge herbicidal activity, greenhouse screen, IPOHE
Text: as §1, §2, §3, §4, §5

Cn1c(C(F)(F)F)cc(=O)n(-c2c(F)ccc3nc(C(C)(C)C)oc23)c1=S [Compound 1-5]
Post-emerge Herbicidal Activity AMARE ([1]; 63 g ai/ha): 99 | Post-emerge Herbicidal Activity AMARE ([1]; 250 g ai/ha): 100 | Pre-emerge Herbicidal Activity RICE (crop damage) ([2]; 63 g ai/ha): 55 | Pre-emerge Herbicidal Activity RICE (crop damage) ([2]; 250 g ai/ha): 80 | Pre-emerge Herbicidal Activity CORN (crop damage) ([3]; 63 g ai/ha): 85 | Pre-emerge Herbicidal Activity CORN (crop damage) ([3]; 250 g ai/ha): 100 | Post-emerge Herbicidal Activity ECHCG ([4]; 63 g ai/ha): 100 | Post-emerge Herbicidal Activity ECHCG ([4]; 250 g ai/ha): 100 | Post-emerge Herbicidal Activity SOY (crop damage) ([5]; 63 g ai/ha): 50 | Post-emerge Herbicidal Activity SOY (crop damage) ([5]; 250 g ai/ha): 75 | Post-emerge Herbicidal Activity CASOB ([6]; 63 g ai/ha): 60 | Post-emerge Herbicidal Activity CASOB ([6]; 250 g ai/ha): 90 | Post-emerge Herbicidal Activity AMBEL ([7]; 63 g ai/ha): 90 | Post-emerge Herbicidal Activity AMBEL ([7]; 250 g ai/ha): 100 | Pre-emerge Herbicidal Activity AMARE ([8]; 63 g ai/ha): 100 | Pre-emerge Herbicidal Activity AMARE ([8]; 250 g ai/ha): 100 | Post-emerge Herbicidal Activity SORHA ([9]; 63 g ai/ha): 55 | Post-emerge Herbicidal Activity SORHA ([9]; 250 g ai/ha): 75 | Post-emerge Herbicidal Activity DIGSA ([10]; 63 g ai/ha): 60 | Post-emerge Herbicidal Activity DIGSA ([10]; 250 g ai/ha): 75 | Pre-emerge Herbicidal Activity SORHA ([11]; 63 g ai/ha): 99 | Pre-emerge Herbicidal Activity SORHA ([11]; 250 g ai/ha): 100 | Post-emerge Herbicidal Activity RICE (crop damage) ([12]; 63 g ai/ha): 65 | Post-emerge Herbicidal Activity RICE (crop damage) ([12]; 250 g ai/ha): 70 | Pre-emerge Herbicidal Activity SETVI ([13]; 63 g ai/ha): 100 | Pre-emerge Herbicidal Activity SETVI ([13]; 250 g ai/ha): 100 | Pre-emerge Herbicidal Activity AMBEL ([14]; 63 g ai/ha): 99 | Pre-emerge Herbicidal Activity AMBEL ([14]; 250 g ai/ha): 100 | Post-emerge Herbicidal Activity SETVI ([15]; 63 g ai/ha): 80 | Post-emerge Herbicidal Activity SETVI ([15]; 250 g ai/ha): 85 | Pre-emerge Herbicidal Activity DIGSA ([16]; 63 g ai/ha): 100 | Pre-emerge Herbicidal Activity DIGSA ([16]; 250 g ai/ha): 100 | Post-emerge Herbicidal Activity ABUTH ([17]; 63 g ai/ha): 100 | Post-emerge Herbicidal Activity ABUTH ([17]; 250 g ai/ha): 100 | Pre-emerge Herbicidal Activity ABUTH ([18]; 63 g ai/ha): 100 | Pre-emerge Herbicidal Activity ABUTH ([18]; 250 g ai/ha): 100 | Pre-emerge Herbicidal Activity SOY (crop damage) ([19]; 63 g ai/ha): 0 | Pre-emerge Herbicidal Activity SOY (crop damage) ([19]; 250 g ai/ha): 99 | Post-emerge Herbicidal Activity IPOHE ([20]; 63 g ai/ha): 100 | Post-emerge Herbicidal Activity IPOHE ([20]; 250 g ai/ha): 100 | Post-emerge Herbicidal Activity CHEAL ([21]; 63 g ai/ha): 95 | Post-emerge Herbicidal Activity CHEAL ([21]; 250 g ai/ha): 100 | Pre-emerge Herbicidal Activity CHEAL ([22]; 63 g ai/ha): 100 | Pre-emerge Herbicidal Activity CHEAL ([22]; 250 g ai/ha): 100 | Pre-emerge Herbicidal Activity CASOB ([23]; 63 g ai/ha): 90 | Pre-emerge Herbicidal Activity CASOB ([23]; 250 g ai/ha): 100 | Post-emerge Herbicidal Activity CORN (crop damage) ([24]; 63 g ai/ha): 15 | Post-emerge Herbicidal Activity CORN (crop damage) ([24]; 250 g ai/ha): 30 | Pre-emerge Herbicidal Activity ECHCG ([25]; 63 g ai/ha): 100 | Pre-emerge Herbicidal Activity ECHCG ([25]; 250 g ai/ha): 100 | Pre-emerge Herbicidal Activity IPOHE ([26]; 63 g ai/ha): 100 | Pre-emerge Herbicidal Activity IPOHE ([26]; 250 g ai/ha): 100
